According to patent publication US20250127698A1, “Hair Perming Compositions With Amine Derivatives” (ELC Management LLC, priority 2023, published 2025):

Tests used:
[1] = DSC keratin denaturation temperature change after straightening treatment; set-up: species or system human; settings: for ΔT (TUntreated−TAlkalizer, keratin denaturation temperature): Type 3 Caucasian hair after straightening, larger ΔT indicates more damage; for damage to hair (in words): hair straightening treatment, Type 3 Caucasian hair
Text: (§1) This damage occurs at the level of keratin proteins.
(§2) Untreated hair was used as a control.
(§3) A larger ΔT indicates more damage.

[2] = DSC keratin denaturation temperature change after curling treatment; settings: for ΔT (TUntreated−TAlkalizer, keratin denaturation temperature): Type 1 Caucasian hair after curling treatment, larger ΔT indicates more damage; for damage to hair (in words): hair curling treatment, Type 1 Caucasian hair
Experimental: It is known that the denaturation of keratin in hair can be detected by differential scanning calorimetry (DSC). DSC is a thermal analysis technique used to measure phase transition temperatures and heat of transformation (enthalpy) for endothermic and exothermic reactions.
For all of the test samples discussed above, DSC measurements were performed using the Discovery DSC 2500 (from TA Instruments. New Castle, DE). The experiments were carried out over a temperature range of 40° C. to 200° C., with a scan rate of 5° C./min under nitrogen protection. DSC samples were prepared by cutting tress samples into pieces (0.1 to 1.0 mm in size) and weighing. The hair samples were mixed with deionized water, and then sealed in high volume pans for at least 6 hours before measuring. The phase transition temperature (keratin denaturation temperature) of each hair sample was analyzed using TRIOS software (Discovery DSC 2500). Untreated hair was used as a control.
Each hair sample was analyzed at least twice, and the average temperature was obtained for data analysis. This was subtracted from the denaturation temperature of the control sample (ΔT=TUntreated−TAlkalizer). A larger ΔT indicates more damage.

[3] = Curl efficiency after hair curling treatment; set-up: species or system human; % Change In Curl Efficiency From 1 to 8 Washes: concentration or dose not given beside the values; settings: for Curl Efficiency (%) After Treatment, 1 Wash and Dry: 1 wash with 5% SDS solution; for Curl Efficiency (%) After Treatment, 8 Washes and Dry: equivalent of 8 washes with 5% SDS solution
Text: (§4) The ability of each test composition to curl hair was established by measuring “curl efficiency”. Curl efficiency is a measure of curl tightness following a hair curling treatment. The higher the efficiency, the tighter the curl. We used a well-known method of measuring curl efficiency, wherein a portion of untreated straight hair of known length, Lu, is secured on an arrangement of pegs to form a sine wave pattern of five cycles, crest-to-crest. Because the pegs are fixed, the ideal length, Li, of the portion of hair when arranged into the five-cycle wave pattern, is known. Starting with a straight swatch of hair of length Lu, the ideal outcome would be a curled swatch of hair with a length of Li. Curl efficiency is a measure of how closely the ideal is attained.
(§5) Two types of hair samples were tested for curling; mixed sourced virgin Type 1Caucasian hair, and single sourced virgin Type 1 hair. For straightening, mixed sourced virgin Type 2C (very wavy) Caucasian hair was tested. Hair straightening test samples were prepared by collecting hair fibers into tresses, and clamping each tress at both ends. For those test samples that were to undergo a straightening treatment, the length, Lu, was measured between two previously determined points.
(§6) Each hair tress was wetted (reverse osmosis water). For curling, each hair tress was wound along a peg board to form a sine wave pattern of five cycles, as described above. For straightening, each hair tress was held on a board in a straight conformation, tension was applied, and the ends of the tress were secured. All test samples (curling or straightening) were allowed to dry before proceeding. Each board with a hair tress test sample was dipped for 10 seconds into a beaker with one of the hair perming compositions. After removing a board from solution, it was immediately placed in an oven for 20 minutes at 37° C. (normal body temperature). The test sample was removed from the oven, and rinsed for five minutes with 37° C. water, being careful not to allow the running water to fall directly on the hair tresses. After blotting with a paper towel, test samples were allowed to rest for five minutes at room temperature, for air oxidation to occur. The hair straightening test samples were removed from the board, blow dried and flat ironed at 200° C., which is commonly done in salon practice. At this point, the ideal length, Li, was measured between the two previously determined point mentioned above. Thereafter, each sample was rebound to the board.
(§7) Each bound hair tress was submerged for ten seconds in a 2% solution of H2O2 to neutralize the reducing agent and promote S-S bond formation, so that the hair tress would retain a desired shape (sine wave pattern or straight) when removed from the board. Each hair tress rested at room temperature for about five minutes, then was rinsed under 37° C. running water for five minutes, and subsequently blotted with a paper towel. Each test sample hair tress was removed from the board, laid on a flat surface, and allowed to dry. The fully permed dry tresses were washed in 5% SDS (sodium dodecyl sulfate) solution (which simulates salon practice) and allowed to dry overnight.
(§8) For the curling test samples, the length, Lt, of five waves, crest to crest was measured. For the straightening test samples, the final length, Lt, was measured between the two previously determined points. At this point, differential scanning calorimetry (DSC) measurements were made on a portion of each hair tress test sample. Also, for longevity performance, each tress was subjected to the equivalent of eight hand washings in 5% SDS solution using the GyroWash color fastness to laundering tester, and allowed to dry, before another length measurement, Lt, was made.
(§9) Curl efficiencies were computed using Equation 1.
(§10) [formula] • Lu=length of the untreated hair tress • Lt=crest-to-crest length of the five-wave portion of the treated hair tress • Li=ideal length of curled hair […]

[4] = Curl efficiency after hair curling treatment; set-up: species or system human; settings: for Curl Efficiency (%) After Treatment, 1 Wash and Dry: 1 wash with 5% SDS solution; for Curl Efficiency (%) After Treatment, 8 Washes and Dry: equivalent of 8 washes with 5% SDS solution
Text: as §4, §5, §6, §7, §8, §9, §10

[5] = pH of hair perming composition; format: physicochemical; settings: for pH: hair perming composition: base of Table 2 (7.50% thioglycolic acid) plus alkalizer, same molar percentage of alkalizer
Text: For testing, we prepared the hair perming compositions shown by Tables 2 and 3, below. […] All compositions contain the same molar percentage of alkalizer, the water content being adjusted accordingly.

[6] = Straightening efficiency after hair straightening treatment; set-up: species or system human; settings: Type 2C Caucasian hair; for Straightening Efficiency (%) After Treatment, 1 Wash and Dry: 1 wash with 5% SDS solution
Text: The ability of each test composition to straighten curly hair was established by measuring “straightening efficiency”. Straightening efficiency represents the degree to which curly hair is made straight by a hair straightening treatment. We start with a curly, untreated hair tress of length Lu. The tress has an ideal straight length of Li, which is the length of the untreated tress when flat ironed to its maximum, straight length. After treatment the tress has a length of Lt. Straightening efficiency is the gain in length as a percentage of the maximum possible gain in length. […] A straightening efficiency of 100% means that the treated tress retained the maximum possible length.
as §5, §6, §7, §8
Straightening efficiencies were computed using Equation 2.
[formula] • Lu=length of the untreated hair tress • Lt=length of treated hair tress • Li=ideal length of straightened hair
(Li−Lu) represents the maximum possible increase in length as a result of treatment. […]

[7] = DSC keratin denaturation temperature change after curling treatment; set-up: species or system human; settings: for ΔT (TUntreated−TAlkalizer, keratin denaturation temperature): Type 1 Chinese hair after curling treatment, larger ΔT indicates more damage; for damage to hair (in words): hair curling treatment, Type 1 Chinese hair
Text: as §1, §2, §3

SMILES: NCC(O)CO (stereo not shown) [Isoserinol, 3-Amino-1,2-propanediol]
- ΔT (TUntreated−TAlkalizer, keratin denaturation temperature) [1]: 2.17 °C
- ΔT (TUntreated−TAlkalizer, keratin denaturation temperature) [2]: 3.07 °C
- curl after the equivalent of 8 washes (in words) ([3]; Chinese hair): ranked second for curl
- curl lost after the equivalent of 8 washes, as percentage of initial curl (in words) ([3]; Chinese hair): comparable to or better than the standards
- % Change In Curl Efficiency From 1 to 8 Washes ([3]; Type 1 Chinese hair): −10.93%
- imparting curl (in words) ([3]; Type 1 Chinese hair): next best at imparting curl
- Curl Efficiency (%) After Treatment, 1 Wash and Dry ([3]; Type 1 Chinese hair): 59.81%
- Curl Efficiency (%) After Treatment, 8 Washes and Dry ([3]; Type 1 Chinese hair): 53.27%
- curl after the equivalent of 8 washes (in words) ([4]; Caucasian hair): ranked second for curl
- curl lost after the equivalent of 8 washes, as percentage of initial curl (in words) ([4]; Caucasian hair): comparable to or better than the standards
- % Change In Curl Efficiency From 1 to 8 Washes ([4]; Type 1 Caucasian hair): −7.69%
- imparting curl (in words) ([4]; Type 1 Caucasian hair): next best at imparting curl
- Curl Efficiency (%) After Treatment, 1 Wash and Dry ([4]; Type 1 Caucasian hair): 48.60%
- Curl Efficiency (%) After Treatment, 8 Washes and Dry ([4]; Type 1 Caucasian hair): 44.86%
- pH of alkalizer composition ([5]; Table 7): 9.18
- pH of alkalizer composition ([5]; Table 8): 9.18
- pH of alkalizer composition ([5]; Table 9): 9.18
- pH [5]: 9.18
- Straightening Efficiency (%) After Treatment, 1 Wash and Dry [6]: 97.30%
- ΔT (TUntreated−TAlkalizer, keratin denaturation temperature) [7]: 2.51 C. °
- damage to hair (in words) [7]: did not perform as well as the other alkalizers

SMILES: NCCO [MEA, Monoethanolamine, reference compound]
- % Change In Curl Efficiency From 1 to 8 Washes ([3]; Type 1 Chinese hair): −13.43%
- Curl Efficiency (%) After Treatment, 1 Wash and Dry ([3]; Type 1 Chinese hair): 64.77%
- Curl Efficiency (%) After Treatment, 8 Washes and Dry ([3]; Type 1 Chinese hair): 56.07%
- % Change In Curl Efficiency From 1 to 8 Washes ([4]; Type 1 Caucasian hair): −7.41%
- Curl Efficiency (%) After Treatment, 1 Wash and Dry ([4]; Type 1 Caucasian hair): 50.47%
- Curl Efficiency (%) After Treatment, 8 Washes and Dry ([4]; Type 1 Caucasian hair): 46.73%
- pH of alkalizer composition ([5]; Table 7): 9.40
- pH of alkalizer composition ([5]; Table 8): 9.40
- pH of alkalizer composition ([5]; Table 9): 9.40
- pH [5]: 9.40
- Straightening Efficiency (%) After Treatment, 1 Wash and Dry [6]: 65.38%

SMILES: CC(N)(CO)CO [AMPD, 2-Amino-2-methyl-1,3-propanediol]
- ΔT (TUntreated−TAlkalizer, keratin denaturation temperature) [1]: 0.32 °C
- ΔT (TUntreated−TAlkalizer, keratin denaturation temperature) [2]: 1.66 °C
- pH of alkalizer composition ([5]; Table 7): 9.09
- pH of alkalizer composition ([5]; Table 8): 9.04
- pH of alkalizer composition ([5]; Table 9): 9.04
- pH [5]: 9.04
- straightening (in words) [6]: performed better than ammonium hydroxide and MEA, but not as well as AMP
- ΔT (TUntreated−TAlkalizer, keratin denaturation temperature) [7]: 0.68 C. °
- damage to hair (in words) [7]: less damage than ammonium hydroxide

SMILES: CCC(N)(CO)CO [AEPD, 2-Amino-2-ethyl-1,3-propanediol]
- ΔT (TUntreated−TAlkalizer, keratin denaturation temperature) [1]: 1.13 °C
- ΔT (TUntreated−TAlkalizer, keratin denaturation temperature) [2]: 2.36 °C
- % Change In Curl Efficiency From 1 to 8 Washes ([3]; Type 1 Chinese hair): −15.09%
- Curl Efficiency (%) After Treatment, 1 Wash and Dry ([3]; Type 1 Chinese hair): 53.93%
- Curl Efficiency (%) After Treatment, 8 Washes and Dry ([3]; Type 1 Chinese hair): 45.79%
- % Change In Curl Efficiency From 1 to 8 Washes ([4]; Type 1 Caucasian hair): −6.40%
- Curl Efficiency (%) After Treatment, 1 Wash and Dry ([4]; Type 1 Caucasian hair): 43.93%
- Curl Efficiency (%) After Treatment, 8 Washes and Dry ([4]; Type 1 Caucasian hair): 41.12%
- pH of alkalizer composition ([5]; Table 7): 9.09
- pH of alkalizer composition ([5]; Table 8): 9.09
- pH of alkalizer composition ([5]; Table 9): 8.98
- pH [5]: 9.09
- Straightening Efficiency (%) After Treatment, 1 Wash and Dry [6]: 94.70%
- ΔT (TUntreated−TAlkalizer, keratin denaturation temperature) [7]: 1.31 C. °

SMILES: NC(CO)(CO)CO [Tris, Tromethamine]
- ΔT (TUntreated−TAlkalizer, keratin denaturation temperature) [1]: 0.07 °C
- damage to hair (in words) [1]: less damage than ammonium hydroxide
- ΔT (TUntreated−TAlkalizer, keratin denaturation temperature) [2]: 1.11 °C
- damage to hair (in words) [2]: less damage than ammonium hydroxide
- pH of alkalizer composition ([5]; Table 7): 8.36
- pH of alkalizer composition ([5]; Table 8): 8.36
- pH of alkalizer composition ([5]; Table 9): 8.36
- pH [5]: 8.36
- straightening (in words) [6]: performed better than ammonium hydroxide and MEA, but not as well as AMP
- ΔT (TUntreated−TAlkalizer, keratin denaturation temperature) [7]: −0.77 C. °
- damage to hair (in words) [7]: less damage than ammonium hydroxide

SMILES: N.O [Ammonium hydroxide, reference compound]
- pH of alkalizer composition ([5]; Table 7): 9.14
- pH of alkalizer composition ([5]; Table 8): 9.14
- pH of alkalizer composition ([5]; Table 9): 9.14
- pH [5]: 9.14
- ΔT (TUntreated−TAlkalizer, keratin denaturation temperature) [7]: 0.80 C. °

SMILES: CN(C)C(C)(C)CO [DMAMP, 2-Dimethylamino-2-methyl-1-propanol]
- ΔT (TUntreated−TAlkalizer, keratin denaturation temperature) [1]: 1.43 °C
- damage to hair (in words) [1]: comparatively little damage
- ΔT (TUntreated−TAlkalizer, keratin denaturation temperature) [2]: 6.06 °C
- damage to hair (in words) [2]: almost as much damage as NaOH
- % Change In Curl Efficiency From 1 to 8 Washes ([3]; Type 1 Chinese hair): −17.06%
- performance in curling, curl retention and degree of damage (FIG. 2, in words) ([3]; Type 1 Chinese hair): did not perform as well as ammonium hydroxide, AMP or MEA
- Curl Efficiency (%) After Treatment, 1 Wash and Dry ([3]; Type 1 Chinese hair): 58.60%
- Curl Efficiency (%) After Treatment, 8 Washes and Dry ([3]; Type 1 Chinese hair): 48.60%
- % Change In Curl Efficiency From 1 to 8 Washes ([4]; Type 1 Caucasian hair): −20.91%
- performance in curling, curl retention and degree of damage (FIG. 1, in words) ([4]; Type 1 Caucasian hair): did not perform as well as ammonium hydroxide, AMP or MEA
- Curl Efficiency (%) After Treatment, 1 Wash and Dry ([4]; Type 1 Caucasian hair): 44.86%
- Curl Efficiency (%) After Treatment, 8 Washes and Dry ([4]; Type 1 Caucasian hair): 35.48%
- pH of alkalizer composition ([5]; Table 7): 10.18
- pH of alkalizer composition ([5]; Table 8): 10.18
- pH of alkalizer composition ([5]; Table 9): 10.18
- pH [5]: 10.18
- performance in straightening and degree of damage versus ammonium hydroxide, AMP and MEA (FIG. 3, in words) [6]: did perform well
- Straightening Efficiency (%) After Treatment, 1 Wash and Dry [6]: 93.75%
- ΔT (TUntreated−TAlkalizer, keratin denaturation temperature) [7]: 5.78 C. °
- damage to hair (in words) [7]: caused the most damage
